Reference: US8993591B2, “1,2,4-triazolo[4,3-a] pyridine derivatives and their use as positive allosteric modulators of MGLUR2 receptors” (Janssen Pharmaceuticals, Inc., priority 2010, dated 2015)
Structures can show the parent of a compound that is named as a salt.

Target: T1, human mGluR2 receptor (Homo sapiens, UniProt Q14416)
T1 construct: expressed in transfected cells; host or cells: CHO cells (membranes)
Assay: [35S]GTPγS binding assay, mGluR2 positive allosteric modulation (PAM)
Format: biochemical
Conditions: membranes from CHO cells transfected with human mGluR2, in presence of glutamate at EC20; for EC50: -log EC50 with EC50 in M, read-out: GTPγS - hmGluR2 PAM pEC50 (converted); for Emax / GTPγS - hmGluR2 PAM Emax: maximal % effect relative to the control glutamate response; for Emax: read-out: GTPγS - hmGluR2 PAM Emax
Protocol: The [^35S]GTPγS binding assay is a functional membrane-based assay used to study G-protein coupled receptor (GPCR) function whereby incorporation of a non-hydrolysable form of GTP, [^35S]GTPγS (guanosine 5′-triphosphate, labelled with […] ^35S), is measured. The G-protein α subunit catalyzes the exchange of guanosine 5′-diphosphate (GDP) by guanosine triphosphate (GTP) and on activation of the GPCR by an agonist, [^35S]GTPγS, becomes incorporated and cannot be cleaved to continue the exchange cycle (Harper (1998) Current Protocols in Pharmacology 2.6.1-10, John Wiley & Sons, Inc.). […] Here we describe the use of the [^35S]GTPγS binding assay using membranes from cells transfected with the human mGluR2 receptor and adapted from Schaffhauser et al. ((2003) Molecular Pharmacology 4:798-810) for the detection of the positive allosteric modulation (PAM) properties of the compounds of this invention.
CHO-cells were cultured to pre-confluence and stimulated with 5 mM butyrate for 24 h. Cells were then collected by scraping in PBS and cell suspension was centrifuged (10 min at 4000 RPM in benchtop centrifuge). Supernatant was discarded and pellet gently resuspended in 50 mM Tris-HCl, pH 7.4 by mixing with a vortex and pipetting up and down. The suspension was centrifuged at 16,000 RPM (Sorvall RC-5C plus rotor SS-34) for 10 minutes and the supernatant discarded. The pellet was homogenized in 5 mM Tris-HCl, pH 7.4 using an ultra-turrax homogenizer and centrifuged again (18,000 RPM, 20 min, 4° C.). The final pellet was resuspended in 50 mM Tris-HCl, pH 7.4 and stored at −80° C. in appropriate aliquots before use. Protein concentration was determined by the Bradford method (Bio-Rad, USA) with bovine serum albumin as standard.
Measurement of mGluR2 positive allosteric modulatory activity of test compounds was performed as follows. Test compounds and glutamate were diluted in assay buffer containing 10 mM HEPES acid, 10 mM HEPES salt, pH 7.4, 100 mM NaCl, 3 mM MgCl2 and 10 μM GDP. Human mGlu2 receptor-containing membranes were thawed on ice and diluted in assay buffer supplemented with 14 μg/ml saponin. Membranes were pre-incubated with compound alone or together with a predefined (˜EC20) concentration of glutamate (PAM assay) for 30 min at 30° C. After addition of [^35S]GTPγS (f.c. 0.1 nM), assay mixtures were shaken briefly and further incubated to allow [^35S]GTPγS incorporation on activation (30 minutes, 30° C.). Final assay mixtures contained 7 μg of membrane protein in 10 mM HEPES acid, 10 mM HEPES salt, pH 7.4, 100 mM NaCl, 3 mM MgCl2, 10 μM GDP and 10 μg/ml saponin. Total reaction volume was 200 μl. Reactions were terminated by rapid filtration through Unifilter-96 GF/B plates (Perkin Elmer, Mass., USA) using a 96-well filtermate universal harvester. Filters were washed 6 times with ice-cold 10 mM NaH2PO4/10 mM Na2HPO4, pH 7.4. Filters were then air-dried, and 40 μl of liquid scintillation cocktail (Microscint-O) was added to each well. Membrane-bound radioactivity was counted in a Microplate Scintillation and Luminescence Counter from Perkin Elmer.
The concentration-response curves of representative compounds of the present invention-obtained in the presence of EC20 of mGluR2 agonist glutamate to determine positive allosteric modulation (PAM)-were generated using the Lexis software interface (developed at J&J).

T1 sequence (Q14416 19-872): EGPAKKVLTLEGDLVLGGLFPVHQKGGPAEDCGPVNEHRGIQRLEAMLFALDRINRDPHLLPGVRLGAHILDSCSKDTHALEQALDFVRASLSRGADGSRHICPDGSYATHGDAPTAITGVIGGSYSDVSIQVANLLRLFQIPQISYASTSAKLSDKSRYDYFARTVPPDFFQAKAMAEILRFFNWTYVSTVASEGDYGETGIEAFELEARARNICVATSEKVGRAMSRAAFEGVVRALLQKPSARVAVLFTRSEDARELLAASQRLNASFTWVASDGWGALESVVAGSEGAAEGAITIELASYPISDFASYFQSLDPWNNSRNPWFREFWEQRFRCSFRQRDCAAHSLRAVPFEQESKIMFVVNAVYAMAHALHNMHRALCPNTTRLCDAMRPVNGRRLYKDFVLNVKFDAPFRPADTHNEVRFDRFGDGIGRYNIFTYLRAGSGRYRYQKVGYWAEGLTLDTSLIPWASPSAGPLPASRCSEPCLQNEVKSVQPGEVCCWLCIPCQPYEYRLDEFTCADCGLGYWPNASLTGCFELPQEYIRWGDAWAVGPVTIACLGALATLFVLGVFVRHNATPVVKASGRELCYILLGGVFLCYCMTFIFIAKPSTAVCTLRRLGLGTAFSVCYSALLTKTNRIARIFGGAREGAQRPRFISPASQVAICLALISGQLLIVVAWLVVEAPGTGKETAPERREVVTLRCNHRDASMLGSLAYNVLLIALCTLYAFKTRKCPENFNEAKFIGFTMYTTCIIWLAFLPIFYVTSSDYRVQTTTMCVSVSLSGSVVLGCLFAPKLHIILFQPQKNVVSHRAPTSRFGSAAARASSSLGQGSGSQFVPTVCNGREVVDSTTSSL

Row | Compound | EC50 [nM] | Emax [%] | GTPγS - hmGluR2 PAM Emax [%]
1 | Fc1ccc(N2CCN(Cc3ccn4c(CC5CC5)nnc4c3C(F)(F)F)C3CC32)c(F)c1 (racemic) [Compound 12, 2-[[3-(Cyclopropylmethyl)-8-(trifluoromethyl)-1,2,4-triazolo[4,3-a]pyridin-7-yl]methyl]-5-(2,4-difluorophenyl)-2,5-diazabicyclo[4.1.0]heptane (cis)] | 12.6 | 277 | 
2 | CC1(c2ccccc2)CN(Cc2ccn3c(CC4CC4)nnc3c2C(F)(F)F)CCN1 (single isomer, unassigned) [Compound 3a, 3-(Cyclopropylmethyl)-7-[(3-methyl-3-phenyl-1-piperazinyl)methyl]-8-(trifluoromethyl)-1,2,4-triazolo[4,3-a]pyridine (*R) hydrochloride hydrate (.2HCl.2.5H2O)] |  | 271 | 
3 | CC1(c2ccccc2)CN(Cc2ccn3c(CC4CC4)nnc3c2C(F)(F)F)CCN1 (single isomer, unassigned) [Compound 3b, 3-(cyclopropylmethyl)-7-[(3-methyl-3-phenyl-1-piperazinyl)methyl]-8-(trifluoromethyl)-1,2,4-triazolo[4,3-a]pyridine (*S) hydrochloride hydrate (.2.4HCl.2.7H2O)] | 37.2 | 292 | 
4 | FC(F)(F)c1c(CN2CCNC(c3ccccc3)C2)ccn2c(CC3CC3)nnc12 (single isomer, unassigned) [Compound 5a, 3-(Cyclopropylmethyl)-7-[(3-phenyl-1-piperazinyl)methyl]-8-(trifluoromethyl)-1,2,4-triazolo[4,3-a]pyridine(*R)] | 2240 | 270 | 
5 | FC(F)(F)c1c(CN2CCNC(c3ccccc3)C2)ccn2c(CC3CC3)nnc12 (single isomer, unassigned) [Compound 5b, 3-(cyclopropylmethyl)-7-[(3-phenyl-1-piperazinyl)methyl]-8-(trifluoromethyl)-1,2,4-triazolo[4,3-a]pyridine (*S)] | 955 |  | 278
6 | Fc1ccccc1C1CN(Cc2ccn3c(CC4CC4)nnc3c2C(F)(F)F)CCN1 (single isomer, unassigned) [Compound 6a, 3-(cyclopropylmethyl)-7-[[3-(2-fluorophenyl)-1-piperazinyl]methyl]-8-(trifluoromethyl)-1,2,4-triazolo[4,3-a]pyridine (*R)] | 447 |  | 208
7 | Fc1ccccc1C1CN(Cc2ccn3c(CC4CC4)nnc3c2C(F)(F)F)CCN1 (single isomer, unassigned) [Compound 6b, 3-(cyclopropylmethyl)-7-[[3-(2-fluorophenyl)-1-piperazinyl]methyl]-8-(trifluoromethyl)-1,2,4-triazolo[4,3-a]pyridine (*S)] | 631 |  | 294
8 | CN1CCN(Cc2ccn3c(CC4CC4)nnc3c2C(F)(F)F)CC1c1ccccc1 (single isomer, unassigned) [Compound 7a, 3-(Cyclopropylmethyl)-7-[(4-methyl-3-phenyl-1-piperazinyl)methyl]-8-(trifluoromethyl)-1,2,4-triazolo[4,3-a]pyridine (*R)] |  | 199 | 
9 | CN1CCN(Cc2ccn3c(CC4CC4)nnc3c2C(F)(F)F)CC1c1ccccc1 (single isomer, unassigned) [Compound 7b, 3-(cyclopropylmethyl)-7-[(4-methyl-3-phenyl-1-piperazinyl)methyl]-8-(trifluoromethyl)-1,2,4-triazolo[4,3-a]pyridine (*S)] | 263 | 198 | 
10 | CC1(c2ccccc2)CN(Cc2ccn3c(CC4CC4)nnc3c2C(F)(F)F)CCO1 (single isomer, unassigned) [Compound 8a, 3-(Cyclopropylmethyl)-7-[(2-methyl-2-phenyl-4-morpholinyl)methyl]-8-(trifluoromethyl)-1,2,4-triazolo[4,3-a]pyridine (*R) hydrochloride hydrate (.1.1HCl.1.1H2O)] | 676 |  | 273
11 | CC1(c2ccccc2)CN(Cc2ccn3c(CC4CC4)nnc3c2C(F)(F)F)CCO1 (single isomer, unassigned) [Compound 8b, 3-(cyclopropylmethyl)-7-[(2-methyl-2-phenyl-4-morpholinyl)methyl]-8-(trifluoromethyl)-1,2,4-triazolo[4,3-a]pyridine (*S) hydrochloride hydrate (.1.3HCl.1.6H2O)] | 8.32 |  | 243
12 | Cc1nnc2c(C(F)(F)F)c(CN3CCCC(C)(c4ccccc4)C3)ccn12 (single isomer, unassigned) [Compound 10, 3-Methyl-7-[(3-methyl-3-phenyl-1-piperidinyl)methyl]-8-(trifluoromethyl)-1,2,4-triazolo[4,3-a]pyridine (*S)] |  | 193 | 
13 | Cc1nnc2c(C(F)(F)F)c(CN3CCCC(C)(c4ccccc4)C3)ccn12 (single isomer, unassigned) [Compound 11, 3-Methyl-7-[(3-methyl-3-phenyl-1-piperidinyl)methyl]-8-(trifluoromethyl)-1,2,4-triazolo[4,3-a]pyridine (*R)] | 53.7 | 268 | 
14 | CC1(c2ccccc2)CCN(Cc2ccn3c(CC4CC4)nnc3c2C(F)(F)F)C1 (single isomer, unassigned) [Compound 13, 3-(cyclopropylmethyl)-7-[(3-methyl-3-phenyl-1-pyrrolidinyl)methyl]-8-(trifluoromethyl)-1,2,4-triazolo[4,3-a]pyridine (*R)] | 12.6 |  | 248
15 | CC1(c2ccccc2)CCN(Cc2ccn3c(CC4CC4)nnc3c2C(F)(F)F)C1 (single isomer, unassigned) [Compound 14, 3-(cyclopropylmethyl)-7-[(3-methyl-3-phenyl-1-pyrrolidinyl)methyl]-8-(trifluoromethyl)-1,2,4-triazolo[4,3-a]pyridine (*S)] | 15.1 |  | 286
16 | Fc1ccc(C2CN(Cc3ccn4c(CC5CC5)nnc4c3C(F)(F)F)CCO2)c(F)c1 (single isomer, unassigned) [Compound 17, 3-(Cyclopropylmethyl)-7-{[(2*R)-2-(2,4-difluorophenyl)morpholin-4-yl]methyl}-8-(trifluoromethyl)[1,2,4]triazolo[4,3-a]pyridine] | 977 | 259 | 
17 | Fc1ccc(C2CN(Cc3ccn4c(CC5CC5)nnc4c3C(F)(F)F)CCO2)c(F)c1 (single isomer, unassigned) [Compound 18, 3-(Cyclopropylmethyl)-7-{[(2*S)-2-(2,4-difluorophenyl)morpholin-4-yl]methyl}-8-(trifluoromethyl)[1,2,4]triazolo[4,3-a]pyridine] | 51.3 |  | 242
18 | Fc1ccc(C2CN(Cc3ccn4c(CC5CC5)nnc4c3C(F)(F)F)CCN2)c(F)c1 (single isomer, unassigned) [Compound 19a, 3-(Cyclopropylmethyl)-7-{[(3*R)-3-(2,4-difluorophenyl)piperazin-1-yl]methyl}-8-(trifluoromethyl)[1,2,4]triazolo[4,3-a]pyridine] | 912 |  | 320
19 | Fc1ccc(C2CN(Cc3ccn4c(CC5CC5)nnc4c3C(F)(F)F)CCN2)c(F)c1 (single isomer, unassigned) [Compound 19b, 3-(Cyclopropylmethyl)-7-{[(3*S)-3-(2,4-difluorophenyl)piperazin-1-yl]methyl}-8-(trifluoromethyl)[1,2,4]triazolo[4,3-a]pyridine] | 468 |  | 279
